Assay results taken from ChEMBL document CHEMBL3352705, “Anion inhibition study of the β-class carbonic anhydrase (PgiCAb) from the oral pathogen Porphyromonas gingivalis” (Bioorg Med Chem Lett, 2014).
pKi: −log10 of the molar value.

Biological target: Carbonic anhydrase 2 (Homo sapiens, UniProt P00918)

## [F-].[Na+] [SODIUM FLUORIDE]
  pKi: < 0.70
